In paper PMC10709440, “High-throughput ligand profile characterization in novel cell lines expressing seven heterologous insect olfactory receptors for the detection of volatile plant biomarkers” (Scientific Reports, 2023):
Read-outs that look alike come from different tables or passages of the source.

Target: T1, Drosophila OR85b (Drosophila melanogaster, UniProt Q9VHQ7)
T1 construct: expressed in transfected cells
T1 sequence (Q9VHQ7 1-390): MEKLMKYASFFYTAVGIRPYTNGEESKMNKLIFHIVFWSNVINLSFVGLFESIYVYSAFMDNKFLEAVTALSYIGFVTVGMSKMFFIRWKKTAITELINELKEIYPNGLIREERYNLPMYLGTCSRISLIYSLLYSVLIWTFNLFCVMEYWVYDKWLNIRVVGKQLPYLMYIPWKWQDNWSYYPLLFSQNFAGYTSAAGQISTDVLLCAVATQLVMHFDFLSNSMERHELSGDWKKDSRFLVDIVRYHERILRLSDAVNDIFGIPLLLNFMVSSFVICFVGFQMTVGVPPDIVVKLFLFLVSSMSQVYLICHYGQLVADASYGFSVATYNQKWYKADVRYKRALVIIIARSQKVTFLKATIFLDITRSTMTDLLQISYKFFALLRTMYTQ
T1 sequence (Q9VNB5 1-486 partner): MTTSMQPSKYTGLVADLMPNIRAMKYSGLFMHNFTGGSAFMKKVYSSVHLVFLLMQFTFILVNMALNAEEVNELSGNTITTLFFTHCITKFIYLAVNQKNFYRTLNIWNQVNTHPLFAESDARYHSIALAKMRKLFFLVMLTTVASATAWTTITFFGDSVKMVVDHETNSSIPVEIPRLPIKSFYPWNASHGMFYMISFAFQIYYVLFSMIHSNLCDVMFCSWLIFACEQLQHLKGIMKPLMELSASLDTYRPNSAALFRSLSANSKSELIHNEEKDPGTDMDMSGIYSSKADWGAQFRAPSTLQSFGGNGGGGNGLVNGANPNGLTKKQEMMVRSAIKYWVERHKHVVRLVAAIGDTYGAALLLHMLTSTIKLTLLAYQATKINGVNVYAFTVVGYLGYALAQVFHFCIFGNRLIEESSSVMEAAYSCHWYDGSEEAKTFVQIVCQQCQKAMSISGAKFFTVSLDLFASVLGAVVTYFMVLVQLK
Assay: Calcium ion fluorescence (GCaMP6) assay, OR85b stable HEK293 cell line
Format: cell-based
Conditions: for OR85b response (VUAA1-normalized) at 1 μM / OR85b response (VUAA1-normalized) at 10 μM / OR85b response (VUAA1-normalized) at 100 μM / Average response: OR85b cell line; for Average response: VUAA1-normalized response, mean of biological replicates
Description: These VUAA1 normalized ∆F values were used to compare the different receptors and ligands.
The concentration-dependent effect of the reference ligands on their cognate cell lines was examined in more detail. Twelve different ligand concentrations were measured on each cell line in an overall 0.01 μM to 100 μM concentration range with 5 repetitions with three technical replicates each time.
Twelve thousand to 18,000 cells were plated into each well of a black wall, transparent bottom 384-well microplate (Greiner) 48 h or 72 h before the measurements and were simultaneously treated with 1 μg/mL doxycycline. […] The plate has 24 columns, thus we could record responses in up to eight different cell lines in each plate. On the day of the experiment, the growth medium was replaced with 20 µL assay buffer/well (140 mM NaCl, 5 mM KCl, 2 mM CaCl2, 1 mM MgCl2, 5 mM HEPES-Na, 20 mM glucose, pH 7.3, 340 mOsm). […] Baseline fluorescence (F0) was recorded for 5 s, after which 7 µL VOC buffer (140 mM NaCl, 5 mM KCl, 2 mM CaCl2, 1 mM MgCl2, 5 mM HEPES-Na, 31 mM glucose, 0.1% DMSO, pH 7.3, 340 mOsm) was injected into each well in one row and the fluorescence response was recorded for an additional 30 s, at a rate of one read/sec. VOC solutions (VOC buffer with 4× concentration of the final measured VOC concentration, 9 µL/well was injected) were measured on the same wells in a second round with the same protocol. Each individual concentration of a specific VOC sample was recorded in three wells for the same cell line on the same microplate. The raw data were exported in xls file format, F0 and FMAX values, and the fluorescence intensity changes (∆F) were calculated in Excel (Microsoft) (Supplementary file Data summary.xlsx) using the following equation: ΔF=FMAX-F0/F0 (see also Fig. 1C). On each plate, we recorded the response of each cell line to 50 µM VUAA1. The average of these ∆F values of each cell line were used to calculate the VUAA1-normalized values for the rest of the plate, by dividing VOC response ∆F values by the average VUAA1 response ∆F value of the corresponding OR cell line. Each VOC-OR combination was measured three times as technical replicates. […] The average of these replicates were used as one ∆F and VUAA1-normalized ∆F in the following analysis.
In the next rows we tested the reference VOCs (or other VOCs known to activate the corresponding cell lines), in order to test if all cell lines are responsive. The remaining rows were used to test VOCs with unknown effect.
The recorded FMAX, F0, ∆F, VUAA1-normalized ∆F values, as well as the OR name, the name of the tested sample, and the final concentration for each well were copied into supplementary file Data summary.xlsx, that was used to summarize all the plates recorded. Here, the averages of the measurements were calculated for each receptor-VOC-concentration combination.

[1] = ligand concentration 1 (unit not given), threshold 0.05, below shown as 0
[2] = ligand concentration 10 (unit not given), threshold 0.05, below shown as 0
[3] = ligand concentration 100 (unit not given), threshold 0.05, below shown as 0
[4] = concentration 1, normalized fluorescence change, values below 0.05 threshold given as 0
[5] = concentration 10, normalized fluorescence change, values below 0.05 threshold given as 0
[6] = concentration 100, normalized fluorescence change, values below 0.05 threshold given as 0
[7] = HEK293, read-out: OR85b Average response (VUAA1-normalized)
[8] = ligand concentration 1 (unit not given), 0.05 threshold, values below shown as 0
[9] = ligand concentration 10 (unit not given), 0.05 threshold, values below shown as 0
[10] = ligand concentration 100 (unit not given), 0.05 threshold, values below shown as 0
[11] = HEK293, read-out: OR85b response (VUAA1-normalized response)

| Molecule | OR85b response (VUAA1-normalized) at 1 μM (VOC concentration 1 μM) | OR85b response (VUAA1-normalized) at 10 μM (VOC concentration 10 μM) | OR85b response (VUAA1-normalized) at 100 μM (VOC concentration 100 μM) | Average response (cc. 1 µM) | Average response (cc. 10 µM) | Average response (cc. 100 µM) | OR85b response (VUAA1-normalized response) (VOC concentration 1 μM) | OR85b response (VUAA1-normalized response) (VOC concentration 10 μM) | OR85b response (VUAA1-normalized response) (VOC concentration 100 μM) | DF norm AVERAGE OR85b [4] | DF norm AVERAGE OR85b [5] | DF norm AVERAGE OR85b [6] | further results |
| --- | --- | --- | --- | --- | --- | --- | --- | --- | --- | --- | --- | --- | --- |
| Cc1ccccc1C [o-xylene] | 0.08 | 0.00 | 0.08 | 0.08 | 0.03 | 0.08 | – | – | – | – | – | – | DF norm AVERAGE OR85b [1]: 0.08035; DF norm AVERAGE OR85b [2]: 0; DF norm AVERAGE OR85b [3]: 0.08274 |
| C=C1CCC2(C(C)C)CC12 (stereo not drawn) [sabinene] | 0.0647 | 0.00 | 0.09 | 0.0647 | 0.0439 | 0.09 | – | – | – | – | – | – | DF norm AVERAGE OR85b [1]: 0.06468; DF norm AVERAGE OR85b [2]: 0; DF norm AVERAGE OR85b [3]: 0.08701 |
| (-)-alpha-cedrene | – | – | – | 0.00 | 0.0466 | 0.0948 | 0.00 | 0.00 | 0.0948 | 0 | 0 | 0.09481 | – |
| Cc1ccc(C)cc1 [p-xylene] | 0.00 | 0.15 | 0.06 | 0.0373 | 0.15 | 0.06 | – | – | – | – | – | – | DF norm AVERAGE OR85b [1]: 0; DF norm AVERAGE OR85b [2]: 0.1515; DF norm AVERAGE OR85b [3]: 0.06066 |
| C=C1[C@H]2CC[C@@H]3[C@H]2C(C)(C)CCC[C@]13C [(+)-longifolene] | – | – | – | 0.08 | 0.11 | 0.05 | 0.08 | 0.11 | 0.00 | 0.0834 | 0.1092 | 0 | – |
| CCCCCCCCCCC [undecane] | 0.00 | 0.05 | 0.11 | 0.0284 | 0.05 | 0.11 | – | – | – | – | – | – | activation at 1 µM [7]: 3%; activation at 10 µM [7]: 5%; activation at 100 µM [7]: 11%; DF norm AVERAGE OR85b [8]: 0; DF norm AVERAGE OR85b [9]: 0.05165; DF norm AVERAGE OR85b [10]: 0.1131 |
| CCCC(O)CC (stereo not drawn) [3-hexanol] | – | – | – | 0.00 | 0.10 | 0.0225 | – | – | – | 0 | 0.09908 | 0 | activation at 1 µM [11]: 0%; activation at 10 µM [11]: 10%; activation at 100 µM [11]: 0% |
| CCCCCCCCCCCCCC [tetradecane] | 0.10 | 0.0844 | 0.00 | 0.10 | 0.0844 | 0.04 | – | – | – | – | – | – | DF norm AVERAGE OR85b [8]: 0.0972; DF norm AVERAGE OR85b [9]: 0.08442; DF norm AVERAGE OR85b [10]: 0 |
| CC1=CCC[C@@]2(C)[C@@H]3CC[C@]12CC3(C)C [(−)-α-neoclovene] | – | – | – | 0.00 | 0.00 | 0.0165 | 0.00 | 0.00 | 0.00 | 0 | 0 | 0 | – |
| COc1cccc(OC)c1 [1,3-dimethoxy benzene] | – | – | – | 0.00 | 0.0268 | 0.0367 | – | – | – | 0 | 0 | 0 | activation at 1 µM [11]: 0%; activation at 10 µM [11]: 0%; activation at 100 µM [11]: 0% |
| C=C(C)C1CCC2(C)OC2C1 (single isomer, unassigned; (+)) [(+)-limonene oxide] | – | – | – | 0.00 | 0.00 | 0.00 | 0.00 | 0.00 | 0.00 | 0 | 0 | 0 | – |
